Experiments:
[1] = tested on: IP L1210 leukemia; experiment: Mouse optimal (highest tolerated) dose, IP L1210 leukemia, Days 1, 5 and 9 schedule (Table 7); format: in vivo
From the text: *IP L1210 leukemia, Days 1, 5 and 9 schedule. Highest tolerated dose in a
least 2 of 3 experiments (i.e,. animal weight difference (testcontrol)

[2] = tested on: IP L1210/Cisplatin; experiment: Activity against IP-implanted L1210/Cisplatin leukemia resistant to cisplatin, 60 day test (Table 4); format: in vivo, Female CD2Fl mice
Experimental: (§1) Biological properties of the compounds of the present invention were determined following the protocol described in Cancer Chemotherapy Reports, Vol. 3, No. 3, 1972 which report is incorporated herein by reference.
Other known mechanisms of resistance for other classes of agents, such as gene amplification or target enzyme change or amplication, also need to be explored. The experiments summarized in Table 3 were conducted at the same time against both sublines using the same drug preparations. […] These experiments were repeated in a second laboratory as documented in Table 4. However, in these experiments the animals were held for 60 rather than 30 days to evaluate whether or not long-term survivors are produced after drug treatment in a more challenging setting. […]
(§2) These experiments (23-00081 3LE31 and 23-00003 3DP3l) were conducted concurrently at the Mason Research Institute, Worcester, MA under the supervision of Dr. William Cobb. See Table 4 for experimental details. The diluent control animals bearing L1210 leukemia lived a median of 8.3 days and gained 1.6 grams by Day 5. […] Female CD2Fl mice were used for these experiments.

[3] = tested on: IP L1210; experiment: Activity against IP-implanted L1210 leukemia sensitive to cisplatin, 60 day test (Table 4); format: in vivo, Female CD2Fl mice
Experimental: as §1
Other known mechanisms of resistance for other classes of agents, such as gene amplification or target enzyme change or amplication, also need to be explored. The experiments summarized in Table 3 were conducted at the same time against both sublines using the same drug preparations. […] These experiments were repeated in a second laboratory as documented in Table 4. However, in these experiments the animals were held for 60 rather than 30 days to evaluate whether or not long-term survivors are produced after drug treatment in a more challenging setting.
(§3) This experiment (A8-00005 3LE31) was conducted at the Southern Research Institute, Birmingham, Ala. under the supervision of Dr. Daniel Griswold. The protocols were the same as those published previously (Geran et al., Cancer Chemotherapy Reports 3: No. 2, 1972 [Attachment 11]). 10^5 cells were implanted intraperitoneally in CD2Fl male mice on Day 0. Drug treatments were given intraperitoneally as single injections at the doses indicated on Days 1, 5 and 9 after tumor implantation. The diluent was saline except for NSC-271674 where 5% sodium bicarbonate was used. All drugs were prepared fresh on the day of injection, and all were administered in solution. Median survival times for both control and drug-treated mice were determined and expressed as a percentage (% T/C). Body weights were determined on Day 5 and expressed as a weight difference (body weight of the drug-treated animals minus that of the control animals in grams) (T-C). The diluent control animals lived a median of 8.4 days and gained 1.9 grams by Day 5 in this experiment. All animals, including Day 30 survivors, were used in the calculation of median survival times. The log10 change in tumor burden refers to the net log change in viable tumor cell population at the end of therapy (Rx) as compared to the start of therapy; e.g., a […] means that there was a […] and a 3 log change means there was a 1000-fold increase in tumor burden at the end of therapy. The tumor burden at the start of therapy was about 6.1×10^5 cells in this experiment.
as §2

[4] = tested on: IP-Implanted L1210 Leukemia; experiment: Dose-response against IP-implanted L1210 leukemia, IP treatment Days 1, 5 and 9, 30-day test (Table 2); format: in vivo, CD2Fl male mice
Experimental: as §1, §3

[5] = tested on: SC Implanted L1210 Leukemia; experiment: Activity against SC implanted L1210 leukemia following intravenous administration, once daily Days 1-5 (Table 5); format: in vivo, CD2Fl male mice
Experimental: as §1
In another type of experiment the same platinum complexes were directly compared against the SC implanted L1210 following intravenous administration (Table 5).
This experiment (A8-00004 3LE32) was conducted at the Southern Research Institute, Birmingham, Ala. under the supervision of Dr. Daniel Griswold. The protocols were the same as those published previously (Attachment 11). 10^6 cells were implanted subcutaneously in CD2Fl male mice on Day 0. Drug treatments were given intravenously once daily at the doses indicated on Days 1-5 after tumor implantation. The dosage range tested included the highest and lowest doses indicated in the Table as well as intermediate values which were determined by multiplying each dose in turn by 0.5 starting with the highest dose. The diluent was saline except for NSC-271674 for which 5% sodium bicarbonate was used. All drugs were prepared fresh on the day of injection, and all were administered in solution. Median survival times for both control and drug-treated mice were determined and expressed as a percentage (% T/C). Body weights were determined on Day 5 and expressed as a weight difference (body weight of the drug-treated animals minus that of the control animals in grams) (T-C).

SMILES: [Cl][Pt-2]1([Cl])([Cl])([Cl])[NH2+][C@H]2CCCC[C@@H]2[NH2+]1 [trans (d), (1S, 2S)-Tetrachloro-trans-1,2-cyclohexanediamine platinum (IV)]
- Mouse Optimal Dose (highest tolerated dose in at least 2 of 3 experiments) [1]: 8 mg/kg
- 60 Day Survivors/Total ([2]; 1 mg/kg/dose): 0/10
- Body Weight Difference ([2]; 1 mg/kg/dose): -0.4 Grams
- Median % T/C ([2]; 1 mg/kg/dose): 125%
- 60 Day Survivors/Total ([2]; 2 mg/kg/dose): 0/10
- Body Weight Difference ([2]; 2 mg/kg/dose): -0.2 Grams
- Median % T/C ([2]; 2 mg/kg/dose): 147%
- 60 Day Survivors/Total ([2]; 4 mg/kg/dose): 6/10
- Body Weight Difference ([2]; 4 mg/kg/dose): -1.4 Grams
- Median % T/C ([2]; 4 mg/kg/dose): 645%
- 60 Day Survivors/Total ([2]; 8 mg/kg/dose): 1/10
- Body Weight Difference ([2]; 8 mg/kg/dose): -4.8 Grams
- Median % T/C ([2]; 8 mg/kg/dose): 193%
- 60 Day Survivors/Total ([2]; 16 mg/kg/dose): 0/10
- Body Weight Difference ([2]; 16 mg/kg/dose): -6.1 Grams
- Median % T/C ([2]; 16 mg/kg/dose): Toxic
- 60 Day Survivors/Total ([3]; 1 mg/kg/dose): 0/10
- Body Weight Difference ([3]; 1 mg/kg/dose): -0.6 Grams
- Median % T/C ([3]; 1 mg/kg/dose): 144%
- 60 Day Survivors/Total ([3]; 2 mg/kg/dose): 3/10
- Body Weight Difference ([3]; 2 mg/kg/dose): -1.0 Grams
- Median % T/C ([3]; 2 mg/kg/dose): 216%
- 60 Day Survivors/Total ([3]; 4 mg/kg/dose): 0/10
- Body Weight Difference ([3]; 4 mg/kg/dose): -1.2 Grams
- Median % T/C ([3]; 4 mg/kg/dose): 202%
- 60 Day Survivors/Total ([3]; 8 mg/kg/dose): 3/10
- Body Weight Difference ([3]; 8 mg/kg/dose): -3.1 Grams
- Median % T/C ([3]; 8 mg/kg/dose): 301%
- 60 Day Survivors/Total ([3]; 16 mg/kg/dose): 0/10
- Body Weight Difference ([3]; 16 mg/kg/dose): -7.0 Grams
- Median % T/C ([3]; 16 mg/kg/dose): Toxic
- 30-Day Survivors/Total ([4]; 1 mg/kg/dose IP): 0/6
- Body Weight Difference ([4]; 1 mg/kg/dose IP): -0.3 Grams
- Median % T/C ([4]; 1 mg/kg/dose IP): 119%
- 30-Day Survivors/Total ([4]; 2 mg/kg/dose IP): 0/6
- Approx. Log10 Change in Tumor Burden at End of Rx ([4]; 2 mg/kg/dose IP): ~2.7 log10
- Body Weight Difference ([4]; 2 mg/kg/dose IP): -0.6 Grams
- Median % T/C ([4]; 2 mg/kg/dose IP): 134%
- 30-Day Survivors/Total ([4]; 4 mg/kg/dose IP): 1/6
- Approx. Log10 Change in Tumor Burden at End of Rx ([4]; 4 mg/kg/dose IP): ~-1.1 log10
- Body Weight Difference ([4]; 4 mg/kg/dose IP): -0.9 Grams
- Median % T/C ([4]; 4 mg/kg/dose IP): 211%
- 30-Day Survivors/Total ([4]; 8 mg/kg/dose IP): 3/6
- Approx. Log10 Change in Tumor Burden at End of Rx ([4]; 8 mg/kg/dose IP): ~-5.7 log10
- Body Weight Difference ([4]; 8 mg/kg/dose IP): -1.7 Grams
- Median % T/C ([4]; 8 mg/kg/dose IP): 357%
- Body Weight Difference ([4]; 8 mg/kg/dose IP, listed as trans d): less than -4 Grams
- 30-Day Survivors/Total ([4]; 16 mg/kg/dose IP): 1/6
- Approx. Log10 Change in Tumor Burden at End of Rx ([4]; 16 mg/kg/dose IP): ~-2.0 log10
- Body Weight Difference ([4]; 16 mg/kg/dose IP): -4.9 Grams
- Median % T/C ([4]; 16 mg/kg/dose IP): 226%
- Optimal dose (dose producing best therapeutic response) ([4]; day 1, 5 and 9 schedule): 8 mg/kg/injection
- Body Weight Difference ([5]; 5 mg/kg/inj IV): -6.4 Grams
- Median % T/C ([5]; 5 mg/kg/inj IV): 172%
- Median Survival Time ([5]; 5 mg/kg/inj IV): 17.8 days
- HNTD (highest nontoxic dose; animal weight difference ≥ -4.0 grams) ([5]; IV once daily Days 1-5): 2.5 mg/kg/inj
- Optimal Dose ([5]; IV once daily Days 1-5): 5.0 mg/kg/inj

Reference: patent publication US4599352A, “Antineoplastic platinum (IV) complexes and compositions” (priority 1984, dated 1986)
